SMILES strings stand for the structures.

The target of assay [1] is T1, Upstate Lck (p56^lck, active) (Homo sapiens, UniProt P06239).
T1 construct: purchased UBI, Upstate Biotech, Inc
In words: SRC-Inhibitor-Assay (time-resolved fluorescence), Lck. It is filed as biochemical. The following applies: ATP 5 μM, peptide 10 μM, enzyme 2.5 U/mL, 15 min pre-incubation at 15° C. An excerpt: (§1) The activity of the compounds according to this invention as inhibitors for the src-family tyrosine kinases was shown by using the following assay.
(§2) SRC-Inhibitor-Assay Parameters:
(§3) Eu-labelled phosphotyrosine antibody:—for Lck Cisbio Mab PT66-K, • for Src EG&G Wallac PT66 Eu-W1024 (all commercially available).
(§4) Peptides: Ro: NH2-A-E-E-E-I-Y-G-E-F-E-A-K-K-K-K-CONH2, and • Ja133-Ro: Ja133-G-Aminocaprylic acid-A-E-E-E-I-Y-G-E-F-E-A-K-K-K-K-CONH2, wherein Ja133 is LightCycler-Red 640-N-hydroxy succinimide ester; • whereby both peptides were synthesized by an optimized solid phase peptide synthesis protocol (Merrifield, Fed. Proc. Fed. Amer. Soc. Exp. Biol. 21 (1962) 412) on a Zinsser SMP350 peptide synthesizer. Shortly, the peptide was assembled on 160 mg (22.8 μmol scale) of a Rink-Linker modified polystyrene solid phase by repeatedly conjugating an twenty fold excess of amino acids each protected by temporary piperidine labile Fmoc- and permanent acid labile tert-Bu-, BOC- and O-tert-Bu-groups depending on the side chain function. The substrate sequence AEEEIYGEFEAKKKK was N-terminal additionally mounted with the spacer amino acids Aminocaprylic acid and Glycin. After cleavage of the N-terminal temporary protecting group the still attached and protected peptide was labeled with a 1.5 fold amount of LightCycler-Red 640-N-hydroxy succinimide ester (purchased from Roche Diagnostics GmbH) and triethylamine. After 3 hrs. the resin was washed with Dimethylformamide and Isopropanol until the eluates of the blue resin got colourless. […] The substrate was finally isolated by a preparative reverse phase HPLC purification. The purification yielded 12.2 mg RP-HPLC single peak pure blue material (lyophilisate). The identity was proven by MALDI mass spectroscopy [2720.0].
(§5) Enzymes: Upstate Lck (p56^lck, active), Upstate Src (p60^c-src, partially purified) were purchased from UBI, Upstate Biotech, Inc.
(§6) Time-resolved Fluorescence Assay: Reader: Perkin Elmer, Wallac Viktor 1420-040 multilabel counter; Liquid handling system: Beckman Coulter, Biomek 2000.
(§7) ATP, Tween™ 20, 4-(2-hydroxyethyl)-l-piperazineethanesulfonic acid (HEPES) were purchased from Roche Molecular Biochemicals, MgCl2 and MnCl2 were purchased from Merck Eurolab, Tris(2-carboxyethyl)phosphine hydrochloride (TCEP) was purchased from Pierce, 384 Well low volume fluorescence plates was purchased from Falcon.
(§8) At first the enzyme is pre-incubated for 15 min. at 15° C. in aqueous solution with corresponding amounts of inhibitors according to this invention. Then the phosphorylation reaction is started by adding a reaction mixture, containing ATP, Peptide and PT66, and subsequent shaking. The proceeding of this reaction is immediately monitored using time resolved fluorescence spectroscopy in a suitable well plate reader.
(§9) The IC50-values can be obtained from the reaction rates by using a non-linear curve fit (XLfit software (ID Business Solution Ltd., Guilford, Surrey, UK))

The target in assay [2] is T2, Upstate Src (p60^c-src, partially purified) (Homo sapiens, UniProt P12931).
T2 construct: purchased UBI, Upstate Biotech, Inc
Put plainly: SRC-Inhibitor-Assay (time-resolved fluorescence), Src. Type of assay: biochemical. The following applies: ATP 5 μM, peptide 10 μM, enzyme 2.5 U/mL, 15 min pre-incubation at 15° C.
From the text: as §1, §2, §3, §4, §5, §6, §7, §8, §9

T1 sequence (P06239 whole entry): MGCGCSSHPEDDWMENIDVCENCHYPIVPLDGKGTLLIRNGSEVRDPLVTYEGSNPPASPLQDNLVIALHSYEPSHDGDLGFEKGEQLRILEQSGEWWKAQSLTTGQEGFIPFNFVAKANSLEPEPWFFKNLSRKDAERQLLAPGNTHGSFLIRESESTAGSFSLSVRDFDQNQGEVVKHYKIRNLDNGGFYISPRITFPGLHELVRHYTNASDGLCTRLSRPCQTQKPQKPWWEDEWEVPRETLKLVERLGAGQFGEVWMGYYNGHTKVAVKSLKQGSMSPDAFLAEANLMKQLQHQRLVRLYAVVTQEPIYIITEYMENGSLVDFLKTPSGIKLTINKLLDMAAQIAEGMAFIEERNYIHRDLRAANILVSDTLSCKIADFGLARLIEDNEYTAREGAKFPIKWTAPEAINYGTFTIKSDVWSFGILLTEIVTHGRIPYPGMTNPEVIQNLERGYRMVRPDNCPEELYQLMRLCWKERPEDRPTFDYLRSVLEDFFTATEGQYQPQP
T2 sequence (P12931 whole entry): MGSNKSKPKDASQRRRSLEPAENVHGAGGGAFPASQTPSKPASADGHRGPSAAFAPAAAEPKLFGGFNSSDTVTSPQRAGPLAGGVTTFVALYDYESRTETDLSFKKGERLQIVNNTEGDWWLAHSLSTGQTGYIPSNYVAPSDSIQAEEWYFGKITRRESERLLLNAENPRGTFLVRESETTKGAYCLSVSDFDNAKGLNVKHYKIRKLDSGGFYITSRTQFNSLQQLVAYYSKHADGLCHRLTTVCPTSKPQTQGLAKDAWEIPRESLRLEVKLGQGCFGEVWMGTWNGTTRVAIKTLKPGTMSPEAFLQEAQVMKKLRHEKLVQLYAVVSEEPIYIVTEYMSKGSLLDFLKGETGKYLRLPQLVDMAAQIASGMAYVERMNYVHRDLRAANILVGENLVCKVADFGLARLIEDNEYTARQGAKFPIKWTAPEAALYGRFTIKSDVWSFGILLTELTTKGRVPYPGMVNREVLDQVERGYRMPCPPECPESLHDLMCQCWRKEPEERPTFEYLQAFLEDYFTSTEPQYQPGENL

The term IC50 denotes the concentration at which inhibition is half-maximal. A lower IC50 goes with greater potency in that assay. Regarding `COCCOc1cccc(-c2cc3cc(NCc4ccccc4C)cnc3[nH]2)c1` [Example 2-2, {2-[3-(2-Methoxy-ethoxy)-phenyl]-1H-pyrrolo[2,3-b]pyridin-5-yl}-(2-methyl-benzyl)-amine], the figures for the IC50 in assay [1] and in assay [2] were 757 nM and 131 nM, respectively.

`CC(=O)Nc1cccc(-c2cc3cc(NCc4ccccc4C)cnc3[nH]2)c1` [Example 2-6, N-{3-[5-(2-Methyl-benzylamino)-1H-pyrrolo[2,3-b]pyridin-2-yl]-phenyl}-acetamide]: the IC50 came to 223 nM in assay [1] and 31 nM in assay [2].

On to `CC(=O)Nc1ccc(-c2cc3cc(NCc4ccccc4)cnc3[nH]2)cc1` [Example 2-7, N-[4-(5-Benzylamino-1H-pyrrolo[2,3-b]pyridin-2-yl)-phenyl]-acetamide], for which the IC50 lay within 100 to 1000 nM in assay [1] and 10 to 500 nM in assay [2].

`Cc1ccccc1CNc1cnc2[nH]c(-c3ccccc3)cc2c1` [Example 2-4, (2-Methyl-benzyl)-(2-phenyl-1H-pyrrolo[2,3-b]pyridin-5-yl)-amine]: the IC50 in assay [1] lay within 100 to 1000 nM; in assay [2], 10 to 500 nM.

In the case of `COCCOc1cccc(-c2cc3cc(NCc4ccccc4)cnc3[nH]2)c1` [Example 2-1, Benzyl-{2-[3-(2-methoxy-ethoxy)-phenyl]-1H-pyrrolo[2,3-b]pyridin-5-yl}-amine], the values for the IC50 in assay [1] and in assay [2] were 100 to 1000 nM and 500 to 1500 nM, respectively.

As to `CC(=O)Nc1ccc(-c2cc3cc(NCc4ccccc4C)cnc3[nH]2)cc1` [Example 2-8, N-{4-[5-(2-Methyl-benzylamino)-1H-pyrrolo[2,3-b]pyridin-2-yl]-phenyl}-acetamide], the half-inhibitory concentration (IC50) fell in the range of 100 to 1000 nM in assay [1] and 10 to 500 nM in assay [2].

Take `c1ccc(CNc2cnc3[nH]c(-c4ccccc4)cc3c2)cc1` [Example 2-3, Benzyl-(2-phenyl-1H-pyrrolo[2,3-b]pyridin-5-yl)-amine]: the IC50 in assay [1] is 1000 to 5000 nM; in assay [2], 10 to 500 nM.

Regarding `CC(=O)Nc1cccc(-c2cc3cc(NCc4ccccc4)cnc3[nH]2)c1` [Example 2-5, N-[3-(5-Benzylamino-1H-pyrrolo[2,3-b]pyridin-2-yl)-phenyl]-acetamide], the values for the IC50 in assay [1] and in assay [2] were 100 to 1000 nM and 10 to 500 nM, respectively.

Regarding `CC(Nc1cnc2[nH]c(-c3ccccc3)nc2c1)c1ccccc1` (stereo not drawn) [Example 1-1, (1-Phenyl-ethyl)-(2-phenyl-3H-imidazo[4,5-b]pyridin-6-yl)-amine], the IC50 in assay [1] was 1000 to 5000 nM; in assay [2], 500 to 1500 nM.

(Values after patent publication US7776878B2, “Heterocyclic benzylamino derivatives, their manufacture and use as pharmaceutical agents” (Hoffmann-La Roche Inc., priority 2005, dated 2010).)
